Experimental data published in article PMC10723784, “Investigation of the cytotoxicity induced by cannabinoids on human ovarian carcinoma cells” (Pharmacology Research & Perspectives, 2023).
“And” between values parts separate entries of the source, which are not always exact repeats. Equal entries are not always repeated. Where two headings read alike, the source gives them in different places.

Experiments:
[1] = MTT cytotoxicity assay, non-cancer ARPE19 cells; conditions: human, ARPE19 non-cancer retinal pigment cells
Description: (§9) Human ovarian carcinoma cells, A2780 (sensitive to chemotherapeutics), A2780/CP70 (resistant to chemotherapeutics), and non‐cancerous cells including PNT2 (normal prostate epithelial cell line), and/or ARPE19 (human retinal pigment cell line) were maintained according to the ATCC and ECACC guidelines.
(§10) In vitro chemosensitivity assays were performed using the MTT assay as previously described.[32], [33] Briefly, at 70% confluency, cells were seeded in 96‐well plates at a density of 2000 cells/well. […] After the allocated contact time had elapsed, the media was removed and 0.5% (w/v) MTT solution diluted in complete media (200 μL) was added to each well. Following a 4 h incubation, the supernatants were removed, and the formazan crystals were dissolved in dimethylsulfoxide (150 μL). The absorbance was read at 540 nm on a Tecan Infinite 50 plate UV reader.

[2] = tested on: caspase 3/7 activity in A2780/CP70 cells; experiment: Caspase 3/7 assay, A2780/CP70 cells; format: cell-based, human; conditions: A2780/CP70, 24 h contact time, dose-dependent, significant above 10 μM
Description: (§1) Sensolyte homogenous caspase 3/7 assay kit was used to determine the caspase activity in ovarian cancer cells when treated with CBG. Cells were seeded in 96‐well plate at 6 × 10^3 cells per well and were incubated for 24 h. CBG was added in concentrations of 10, 20, 30, and 50 μM and incubated for a further 24 h. After the incubation time elapsed, the media was removed and replaced with 150 μL/well of fresh complete media. Caspase 3/7 solution was prepared by diluting the caspase substrate 1:100 with DTT‐containing assay buffer. 50 μL/well caspase substrate was added to the plates, and the cells were incubated for 30 min. Ac‐DEVD‐AMC serves as the fluorogenic indicator for assaying caspase‐3/7 activity. Ac‐DEVD‐AMC generates the AMC fluorophore in the presence of caspase 3/7, which produces bright blue fluorescence. The fluorescence was measured by the FLOUstar OPTIMA plate reader with the excitation at 354 nm and emission at 442 nm.
(§2) The level of caspase 3/7 was also determined using Apotox‐Glo Triple assay. Cells were seeded and drugs were added as described above in Section 2.6.1. After 24 h incubation, caspase 3/7 reagent was prepared by mixing caspase buffer and substrate and 100 μL of reagent was added to each well for 30 min incubation at room temperature. […] The luminescence was measured by the FLOUstar OPTIMA plate reader.

A2780 cells [3] = experiment: Cell cycle analysis (DAPI, NC-3000), A2780 cells; format: cell-based, human; conditions: 48 h
Description: (§3) Cells were seeded in T25 flasks at 4 × 10^5 cells per flask and were incubated for 48 h or until they reached confluency. […] After the incubation time elapsed cells were suspended in PBS with a density closer to 1 × 10^6cells/mL. The cells were washed twice with 1× PBS before the addition of 250 μL of lysis buffer (solution 10) supplemented with 10 μg/mL DAPI (solution 12) was added to the samples and incubated for 5 min at 37°C. After incubation, 250 μL of stabilization buffer (solution 11) was added. 12.5 μL of samples were loaded on to an A‐8 slide and were analyzed using the NC‐3000 system.

A2780 cells [4] = experiment: Mitochondrial membrane potential assay (JC-1), A2780 cells; format: cell-based, human; conditions: A2780, 10-50 μM, 24 h, dose-dependent
Description: (§4) The mitochondrial membrane potential assay was performed to detect the loss in mitochondrial potential (de‐polarization), which is a vital step in apoptosis.[36] Cells were seeded in T25 flasks at 4 × 10^5 cells per flask and were incubated for 48 h or until they reached confluency. After the incubation time elapsed, drugs at concentrations of 10, 30, and 50 μM or vehicle were added to the flasks and further incubated for 24 h. After 24 h elapsed, the cells were harvested and suspended in PBS. Cell viability and number were determined by the cell viability assay using via1 cassettes on NC‐3000 system. The samples were diluted in PBS to 1 × 10^6 cells/mL and 2.5 μg/mL of JC‐1 dye was added to each sample. JC‐1 is a […] dye, which stains as fluorescent red as it aggregates in the mitochondrial matrix. In the absence of mitochondrial membrane potential, JC‐1 localizes in the cytosol in its fluorescent green form. Following the addition of JC‐1, the cells were incubated for 10–30 min at 37°C. […] 12.5 μL of samples were loaded on to an A‐8 slide and were analyzed using the NC‐3000 image cytometry. The degree of apoptosis (in proportional to the loss in mitochondrial membrane potential) was measured using a scatter plot of JC‐1 red fluorescence versus JC‐1 green fluorescence.

A2780 cells [5] = experiment: MTT cytotoxicity assay, A2780 cells; conditions: for Combination index (CI), carboplatin + CBD: A2780, 100 nM CBD
Description: (§5) In separate experiments, cells were seeded in 96‐well plates and after 24 h elapsed they were exposed to different concentrations of drugs or vehicle. Cells were then left in the incubator for a further 24 or 48 h. Then the media was replaced with fresh media containing no drug and the cells were left in the incubator. MTT assay was performed after 96 h elapsed from the time when cells were exposed to drugs or vehicle.
(§6) The cells were then left in the incubator and MTT assay was performed 96 h following the initial exposure to the drugs.
(§7) The selective index (SI) is the ratio of mean IC50 values for non‐cancer cells to cancer cells. […] While the isobologram can be considered predominantly as a graphical depiction of drug interactions, the combination index (CI) is a quantitative representation. It relates the actual drug concentration in the combination to the concentration of the single drug that achieves the same effect. […] Here, CI analysis was used to investigate combinations at 50% cytotoxicity. To this end the IC50 of the viability dose–response curves were determined by non‐linear regression curve fit analysis (GraphPad Prism, v5.00).
(§8) CIA+B is the combination index of A and B; C A the concentration of A applied in combination; C B the concentration of B applied in combination; IC50 A the IC50 of drug A when it was applied individually to the cells; IC50 B = IC50 of drug B when it was applied individually to the cells.

A2780/CP70 cells [6] = experiment: MTT cytotoxicity assay, A2780/CP70 cells; conditions: for Combination index (CI), carboplatin + CBD: A2780/CP70, 100 nM CBD; for Combination index (CI), carboplatin + CBG: A2780/CP70, 100 nM CBG
Description: as §5, §6, §7, §8

[7] = MTT cytotoxicity assay, non-cancer PNT2 cells; conditions: human, PNT2 normal prostate epithelial cells
Description: as §9, §10

[8] = high doses such as 1500 mg/day; cited from earlier work
A2780/CP70 cells [9] = experiment: Mitochondrial membrane potential assay (JC-1), A2780/CP70 cells; format: cell-based, human; conditions: A2780/CP70, 10-50 μM, 24 h, dose-dependent
Description: as §4

A2780/CP70 cells [10] = experiment: Cell cycle analysis (DAPI, NC-3000), A2780/CP70 cells; format: cell-based, human; conditions: 48 h
Description: as §3

[11] = tested on: caspase 3/7 activity in A2780 cells; experiment: Caspase 3/7 assay, A2780 cells; format: cell-based, human; conditions: A2780, 24 h contact time, dose-dependent, significant above 10 μM
Description: as §1, §2

Structure (SMILES): C=C(C)[C@@H]1CCC(C)=C[C@H]1c1c(O)cc(CCCCC)cc1O [CBD, cannabidiol]
- IC50 at 24 h [1]: 25.3 ± 1.8 µM
- IC50 at 48 h [1]: 14.4 ± 0.9 µM
- IC50 at 72 h [1]: 13 µM
- IC50 at 96 h [1]: 11.7 ± 1.2 µM
- Caspase 3/7 activity [2]: increased the caspase 3/7 activity
- Cells in G0/G1 phase (A2780 cells [3]; A2780, 10 μM): 81.4 ± 1.3%
- Cells in G0/G1 phase (A2780 cells [3]; A2780, 30 μM): 85 ± 1.5%
- Cells in S phase (A2780 cells [3]; A2780, 30 μM): 6 ± 1.5%
- Cells in G0/G1 phase (A2780 cells [3]; A2780, 50 μM): 61.6 ± 1.4%
- Cells in subG1 phase (A2780 cells [3]; A2780, 50 μM): 11.1 ± 1.0%
- Percentage of apoptotic cells (loss of mitochondrial membrane potential) (A2780 cells [4]): induced an increase in the percentage of apoptotic cells
- IC50 (A2780 cells [5]; Homo sapiens, A2780, 24 h, read-out: IC50 cytotoxicity): 12.3 ± 0.7 µM
- IC50 (A2780 cells [5]; Homo sapiens, A2780, 48 h, read-out: IC50 cytotoxicity): 6.8 ± 1.1 µM
- IC50 (A2780 cells [5]; Homo sapiens, A2780, 72 h, read-out: IC50 cytotoxicity): 4.5 ± 0.1 µM
- IC50 (A2780 cells [5]; Homo sapiens, A2780, 96 h, read-out: IC50 cytotoxicity): 3.5 ± 0.2 µM
- Cytotoxicity (A2780 cells [5]; human): approximately 90%
- Selectivity index (A2780/CP70 cells [6]): 1.57 and 1.28 and 1.78 and 2.02 and 2.49 and 1.52 and 2.35 and 2.48
- IC50 (A2780/CP70 cells [6]; Homo sapiens, A2780/CP70, 24 h, read-out: IC50 cytotoxicity): 16.1 ± 0.6 µM
- IC50 (A2780/CP70 cells [6]; Homo sapiens, A2780/CP70, 48 h, read-out: IC50 cytotoxicity): 11.2 ± 0.7 µM
- IC50 (A2780/CP70 cells [6]; Homo sapiens, A2780/CP70, 72 h, read-out: IC50 cytotoxicity): 7.3 ± 0.4 µM
- IC50 (A2780/CP70 cells [6]; Homo sapiens, A2780/CP70, 96 h, read-out: IC50 cytotoxicity): 5.8 ± 0.8 µM
- IC50 at 24 h [7]: 40.6 ± 2.3 µM
- IC50 at 48 h [7]: 17.7 ± 2.4 µM
- IC50 at 72 h [7]: 17.2 ± 0.6 µM
- IC50 at 96 h [7]: 14.4 ± 1.6 µM
- Tolerability in humans [8]: well tolerated
- Percentage of apoptotic cells (loss of mitochondrial membrane potential) (A2780/CP70 cells [9]): induced an increase in the percentage of apoptotic cells
- Cells in G0/G1 phase (A2780/CP70 cells [10]; A2780/CP70, 10 μM): 77.4 ± 1.3%
- Cells in G0/G1 phase (A2780/CP70 cells [10]; A2780/CP70, 30 μM): 85.1 ± 1.1%
- Cells in G0/G1 phase (A2780/CP70 cells [10]; A2780/CP70, 50 μM): 64.9 ± 0.9%
- Cells in subG1 phase (A2780/CP70 cells [10]; A2780/CP70, 50 μM): 6 ± 0.9%
- Caspase 3/7 activity [11]: increased the caspase 3/7 activity

Structure (SMILES): Cc1c(C)c2c(c(C)c1O)CC[C@@](C)(CCC[C@H](C)CCC[C@H](C)CCCC(C)C)O2 [α‐tocopherol]
- Effect on viability of the cells when used alone (A2780 cells [5]; alone up to 100 μM, preliminary experiments, cell line not named (A2780 and A2780/CP70 tested)): did not compromise the viability of the cells

Structure (SMILES): N.N.O=C([O-])C1(C(=O)[O-])CCC1.[Pt+2] [carboplatin]
- Combination index (CI), carboplatin + CBD (A2780 cells [5]; 24 h, at 50% cytotoxicity): 0.36
- Combination index (CI), carboplatin + CBD (A2780 cells [5]; 48 h, at 50% cytotoxicity): 0.17
- Combination index (CI), carboplatin + CBD (A2780 cells [5]; 72 h, at 50% cytotoxicity): 0.15
- Combination index (CI), carboplatin + CBD (A2780 cells [5]; 96 h, at 50% cytotoxicity): 0.096
- Combination index (CI), carboplatin + CBG (A2780 cells [5]; A2780, 100 nM CBG, 96 h, at 50% cytotoxicity): 0.55
- IC50 (A2780 cells [5]; read-out: IC50 cytotoxicity, recovery, A2780, 24 h exposure then drug washed out, MTT at 96 h): 7.9 ± 0.5 µM
- IC50 (A2780 cells [5]; read-out: IC50 cytotoxicity, recovery, A2780, 48 h exposure then drug washed out, MTT at 96 h): 4.7 ± 0.2 µM
- IC50 (A2780 cells [5]; read-out: IC50 cytotoxicity, recovery, A2780, 48 h exposure then drug washed out, MTT at 96 h, listed as Carboplatin): 4.8 ± 0.2 µM
- IC50 (A2780 cells [5]; read-out: IC50 cytotoxicity, recovery, A2780, 72 h exposure then drug washed out, MTT at 96 h): 2.6 ± 0.5 µM
- IC50 (A2780 cells [5]; read-out: IC50 cytotoxicity, A2780, 24 h contact time, MTT): > 100 µM
- IC50 (A2780 cells [5]; read-out: IC50 cytotoxicity, A2780, 48 h contact time, MTT): 17.3 ± 0.6 µM
- IC50 (A2780 cells [5]; read-out: IC50 cytotoxicity, A2780, 72 h contact time, MTT): 4.3 ± 0.7 µM
- IC50 (A2780 cells [5]; read-out: IC50 cytotoxicity, A2780, 96 h contact time, MTT): 2.57 µM and 2.5 µM and 2.6 µM
- IC50 (A2780 cells [5]; read-out: IC50 cytotoxicity, A2780, 96 h contact time, MTT, listed as Carboplatin): 2.6 ± 0.3 µM
- Combination index (CI), carboplatin + CBD (A2780/CP70 cells [6]; 24 h): 0.85
- Combination index (CI), carboplatin + CBD (A2780/CP70 cells [6]; 48 h): 0.78
- Combination index (CI), carboplatin + CBD (A2780/CP70 cells [6]; 72 h): 0.8
- Combination index (CI), carboplatin + CBD (A2780/CP70 cells [6]; 96 h): 0.57
- Combination index (CI), carboplatin + CBG (A2780/CP70 cells [6]; 48 h): 0.78
- Combination index (CI), carboplatin + CBG (A2780/CP70 cells [6]; 72 h): 0.71
- Combination index (CI), carboplatin + CBG (A2780/CP70 cells [6]; 96 h): 0.65
- IC50 (A2780/CP70 cells [6]; read-out: IC50 cytotoxicity, recovery, A2780/CP70, 24 h exposure then drug washed out, MTT at 96 h): 66.5 ± 3.4 µM
- IC50 (A2780/CP70 cells [6]; read-out: IC50 cytotoxicity, recovery, A2780/CP70, 48 h exposure then drug washed out, MTT at 96 h): 48.7 ± 0.4 µM
- IC50 (A2780/CP70 cells [6]; read-out: IC50 cytotoxicity, recovery, A2780/CP70, 72 h exposure then drug washed out, MTT at 96 h): 45.5 ± 2.6 µM
- IC50 (A2780/CP70 cells [6]; read-out: IC50 cytotoxicity, A2780/CP70, 24 h contact time, MTT): > 100 µM
- IC50 (A2780/CP70 cells [6]; read-out: IC50 cytotoxicity, A2780/CP70, 48 h contact time, MTT): > 100 µM
- IC50 (A2780/CP70 cells [6]; read-out: IC50 cytotoxicity, A2780/CP70, 72 h contact time, MTT): 48 ± 1.9 µM
- IC50 (A2780/CP70 cells [6]; read-out: IC50 cytotoxicity, A2780/CP70, 96 h contact time, MTT): 44.9 ± 3.5 µM

Structure (SMILES): COc1ccc(C(=O)c2c(C)n(CCN3CCOCC3)c3cc(I)ccc23)cc1 [AM630]
- Concentrations at which the antagonist alone induced cytotoxicity (A2780 cells [5]; A2780, antagonist alone): higher than 1 μM
- Concentrations at which the antagonist alone induced cytotoxicity (A2780/CP70 cells [6]; A2780/CP70, antagonist alone): higher than 1 μM
